{"source": "patent US20220183282A1", "about": "“Fatty Acid Derivatives For Improving The Effect Of Agrochemical Actives” (priority 2019, published 2022)", "key": {"apple leaf cuticles [1]": {"test_system": "apple leaf cuticles", "assay": "Penetration of Mesotrione through isolated apple leaf cuticles in the presence of test substances", "conditions": "Mesotrione 0.5 g/L in spray liquid, no test substance", "excerpt": "(§1) Surfactants can affect the absorption of (active) ingredients through membranes such as skin, films or the plant cuticle. As a “finite-dose” application, it is known for the single administration or application of a solution, cream, gel etc. to a membrane that the absorption of active ingredient can be influenced by some additives such as surfactants even after wetting.\nThe principle of the method has been published and described in detail e.g. in WO-A-2005/194844 or WO2017211572 A1). The leaf cuticles were enzymatically isolated in the manner described in the literature from apple leaves of orchard trees in a commercial stone fruit growing facility near Frankfurt am Main in 2017. The stomata-free cuticles were first dried under air and then installed into stainless steel diffusion cells. After application to the original upper side of the leaf and evaporation of the test liquid, i.e. of the spray liquids of the active ingredients with or without the inventive substances or comparative compositions, the diffusion cells were transferred into thermostated blocks and charged with aqueous liquid. The water used to make up the aqueous test liquids was local tap water (of known composition). At regular intervals, aliquot samples were taken and the proportion of active ingredient penetrated was determined by HPLC or alternatively by radio-chemical method where radio-labelled active ingredient was used as tracer to determine the concentration. During the experiment, the temperature in the system (block, diffusion cells, liquids, etc.) and the air humidity above the spray deposit on the cuticle were controlled. In the experiment, relative air humidity was constant throughout at 56% relative air humidity (air over supersaturated calcium nitrate) at a constant 10° C. or 25° C. The analytical determination by means of HPLC (1290 Infinity, Agilent) was effected thereafter with a Kinetex column 30×2, 1 mm, 2.6μ C18 100 A (Phenomenex), taking a 20 μL aliquot as injection volume at the specified times. […]"}, "[2]": {"assay": "Dynamic surface tension, bubble pressure method (BP2100 tensiometer, Krüss)", "format": "physicochemical", "description": "Dynamic surface tension was determined via the bubble pressure method (BP2100 tensiometer, Krüss). Given a timespan of relevance for the spray application of agrochemicals in aqueous dilution (called the surface age in the bubble pressure method) of 200 milliseconds (ms), the value for dynamic surface tension in [mN/m] correlates with the adhesion on plants that are difficult to wet, such as barley (cereal). A value of 50 mN/m (at 20-21° C.) with respect to water (72.8 mN/m) results in an improvement in the adhesion from “zero adhesion” (0%) to about 50% (Baur P., Pontzen R.; 2007; Basic features of plant surface wettability and deposit formation and the impact of adjuvant; in R. E. Gaskin ed. Proceedings of the 8th International Symposium on Adjuvants for Agrochemicals; Publisher: International Society for Agrochemical Adjuvants (ISAA), Columbus, Ohio, USA)."}, "apple leaf cuticles [3]": {"test_system": "apple leaf cuticles", "assay": "Penetration of Flufenacet through isolated apple leaf cuticles in the presence of test substances", "conditions": "apple, 0.75 g/L", "excerpt": "as §1\n(§2) The principle of the method has been published and described in detail e.g. in WO-A-2005/194844 or WO2017211572 A1). The leaf cuticles were enzymatically isolated in the manner described in the literature from apple leaves of orchard trees in a commercial stone fruit growing facility near Frankfurt am Main in 2017. The stomata-free cuticles were first dried under air and then installed into stainless steel diffusion cells. After application to the original upper side of the leaf and evaporation of the test liquid, i.e. of the spray liquids of the active ingredients with or without the inventive substances or comparative compositions, the diffusion cells were transferred into thermostated blocks and charged with aqueous liquid. The water used to make up the aqueous test liquids was local tap water (of known composition). At regular intervals, aliquot samples were taken and the proportion of active ingredient penetrated was determined by HPLC or alternatively by radio-chemical method where radio-labelled active ingredient was used as tracer to determine the concentration. During the experiment, the temperature in the system (block, diffusion cells, liquids, etc.) and the air humidity above the spray deposit on the cuticle were controlled. […] The analytical determination by means of HPLC (1290 Infinity, Agilent) was effected thereafter with a Kinetex column 30×2, 1 mm, 2.6μ C18 100 A (Phenomenex), taking a 20 μL aliquot as injection volume at the specified times. In each case, the geometric mean values of the penetration for intact membranes at the mean measurement times are given."}, "apple leaf cuticles [4]": {"test_system": "apple leaf cuticles", "assay": "Penetration of Mesosulfuron-methyl through isolated apple leaf cuticles in the presence of test substances", "format": "in vitro ADME", "conditions": "Mesosulfuron-methyl 0.1 g/L in spray liquid, no test substance, 10° C./61% rel. air humidity", "excerpt": "as §1, §2"}, "apple leaf cuticles [5]": {"test_system": "apple leaf cuticles", "assay": "Penetration of Imidacloprid through isolated apple leaf cuticles in the presence of test substances", "conditions": "apple, 0.5 g/L", "excerpt": "as §1\n(§3) The principle of the method has been published and described in detail e.g. in WO-A-2005/194844 or WO2017211572 A1). The leaf cuticles were enzymatically isolated in the manner described in the literature from apple leaves of orchard trees in a commercial stone fruit growing facility near Frankfurt am Main in 2017. The stomata-free cuticles were first dried under air and then installed into stainless steel diffusion cells. After application to the original upper side of the leaf and evaporation of the test liquid, i.e. of the spray liquids of the active ingredients with or without the inventive substances or comparative compositions, the diffusion cells were transferred into thermostated blocks and charged with aqueous liquid. The water used to make up the aqueous test liquids was local tap water (of known composition). At regular intervals, aliquot samples were taken and the proportion of active ingredient penetrated was determined by HPLC or alternatively by radio-chemical method where radio-labelled active ingredient was used as tracer to determine the concentration. During the experiment, the temperature in the system (block, diffusion cells, liquids, etc.) and the air humidity above the spray deposit on the cuticle were controlled. In the experiment, relative air humidity was constant throughout at 56% relative air humidity (air over supersaturated calcium nitrate) at a constant 10° C. or 25° C. The analytical determination by means of HPLC (1290 Infinity, Agilent) was effected thereafter with a Kinetex column 30×2, 1 mm, 2.6μ C18 100 A (Phenomenex), taking a 20 μL aliquot as injection volume at the specified times. In each case, the geometric mean values of the penetration for intact membranes at the mean measurement times are given."}, "apple leaf cuticles [6]": {"test_system": "apple leaf cuticles", "assay": "Penetration of lodosulfuron-methyl through isolated apple leaf cuticles in the presence of test substances", "format": "in vitro ADME", "conditions": "lodosulfuron-methyl 0.1 g/L in spray liquid, no test substance, 10° C./61% rel. air humidity", "excerpt": "as §1, §2"}, "apple leaf cuticles [7]": {"test_system": "apple leaf cuticles", "assay": "Penetration of MCPA through isolated apple leaf cuticles in the presence of test substances", "conditions": "MCPA 1.5 g/L in spray liquid, no test substance, 25° C./56% rel. air humidity", "excerpt": "as §1, §3"}}, "data": [{"compound": "CS(=O)(=O)c1ccc(C(=O)C2C(=O)CCCC2=O)c([N+](=O)[O-])c1", "note": "[Mesotrione]", "values": [{"measurement": "Mean penetration for Mesotrione after time", "setting": "apple leaf cuticles [1]; 1 day", "value": 0, "unit": "%"}, {"measurement": "Mean penetration for Mesotrione after time", "setting": "apple leaf cuticles [1]; 2 days", "value": 0, "unit": "%"}]}, {"compound": "C8/C10 fatty acid 6 EO ester methyl ether [A2]", "values": [{"measurement": "Dynamic Surface tension", "setting": "[2]; 0.3 g/L, 20 ms", "value": 54.5, "unit": "mN/m"}, {"measurement": "Dynamic Surface tension", "setting": "[2]; 0.3 g/L, 50 ms", "value": 54.5, "unit": "mN/m"}, {"measurement": "Dynamic Surface tension", "setting": "[2]; 0.3 g/L, 100 ms", "value": 54.5, "unit": "mN/m"}, {"measurement": "Dynamic Surface tension", "setting": "[2]; 0.3 g/L, 200 ms", "value": 54.5, "unit": "mN/m"}, {"measurement": "Dynamic Surface tension", "setting": "[2]; 1 g/L, 20 ms", "value": 42.0, "unit": "mN/m"}, {"measurement": "Dynamic Surface tension", "setting": "[2]; 1 g/L, 50 ms", "value": 42.0, "unit": "mN/m"}, {"measurement": "Dynamic Surface tension", "setting": "[2]; 1 g/L, 100 ms", "value": 42.0, "unit": "mN/m"}, {"measurement": "Dynamic Surface tension", "setting": "[2]; 1 g/L, 200 ms", "value": 42.0, "unit": "mN/m"}, {"measurement": "Dynamic Surface tension", "setting": "[2]; 3 g/L, 20 ms", "value": 31.5, "unit": "mN/m"}, {"measurement": "Dynamic Surface tension", "setting": "[2]; 3 g/L, 50 ms", "value": 31.5, "unit": "mN/m"}, {"measurement": "Dynamic Surface tension", "setting": "[2]; 3 g/L, 100 ms", "value": 31.5, "unit": "mN/m"}, {"measurement": "Dynamic Surface tension", "setting": "[2]; 3 g/L, 200 ms", "value": 31.5, "unit": "mN/m"}, {"measurement": "Dynamic Surface tension", "setting": "[2]; 10 g/L, 20 ms", "value": 28.5, "unit": "mN/m"}, {"measurement": "Dynamic Surface tension", "setting": "[2]; 10 g/L, 50 ms", "value": 28.5, "unit": "mN/m"}, {"measurement": "Dynamic Surface tension", "setting": "[2]; 10 g/L, 100 ms", "value": 28.5, "unit": "mN/m"}, {"measurement": "Dynamic Surface tension", "setting": "[2]; 10 g/L, 200 ms", "value": 28.5, "unit": "mN/m"}]}, {"compound": "CC(C)N(C(=O)COc1nnc(C(F)(F)F)s1)c1ccc(F)cc1", "note": "[Flufenacet, reference compound]", "values": [{"measurement": "Mean penetration for Flufenacet after time", "setting": "apple leaf cuticles [3]; 1 day", "value": 0.4, "unit": "%"}, {"measurement": "Mean penetration for Flufenacet after time", "setting": "apple leaf cuticles [3]; 2 days", "value": 0.7, "unit": "%"}]}, {"compound": "COC(=O)c1ccc(CNS(C)(=O)=O)cc1S(=O)(=O)NC(=O)Nc1nc(OC)cc(OC)n1", "note": "[Mesosulfuron-methyl, reference compound]", "values": [{"measurement": "Mean penetration for Mesosulfuron-methyl after time", "setting": "apple leaf cuticles [4]; 1 day", "value": 0, "unit": "%"}, {"measurement": "Mean penetration for Mesosulfuron-methyl after time", "setting": "apple leaf cuticles [4]; 2 days", "value": 0, "unit": "%"}]}, {"compound": "O=[N+]([O-])NC1=NCCN1Cc1ccc(Cl)nc1", "note": "[Imidacloprid, reference compound]", "values": [{"measurement": "Mean penetration for Imidacloprid after time", "setting": "apple leaf cuticles [5]; 1 day", "value": 0.5, "unit": "%"}, {"measurement": "Mean penetration for Imidacloprid after time", "setting": "apple leaf cuticles [5]; 4 days", "value": 1.3, "unit": "%"}]}, {"compound": "COC(=O)c1ccc(I)cc1S(=O)(=O)NC(=O)Nc1nc(C)nc(OC)n1", "note": "[lodosulfuron-methyl, reference compound]", "values": [{"measurement": "Mean penetration for lodosulfuron-methyl after time", "setting": "apple leaf cuticles [6]; 1 day", "value": 0, "unit": "%"}, {"measurement": "Mean penetration for lodosulfuron-methyl after time", "setting": "apple leaf cuticles [6]; 2 days", "value": 0, "unit": "%"}]}, {"compound": "Cc1cc(Cl)ccc1OCC(=O)O", "note": "[MCPA, reference compound]", "values": [{"measurement": "Mean penetration for MCPA after time", "setting": "apple leaf cuticles [7]; 0.5 day", "value": 9.0, "unit": "%"}, {"measurement": "Mean penetration for MCPA after time", "setting": "apple leaf cuticles [7]; 1 day", "value": 17.1, "unit": "%"}]}]}
